From patent US20180228787A1, “AMELIORATION OF CERTAIN DEFICIENCIES DUE TO STROKE” (NEURALSTEM, INC., priority 2017, published 2018)

Key:
Type in all cases: in vivo, Sprague-Dawley rats
[1] = system: middle cerebral artery occlusion (MCAo) stroke rats; assay: Bederson neurological exam after MCAo stroke
From the text: (§1) A. Stroke surgery. Sixty (60) adult Sprague-Dawley, male rats (weighing around 250 g at beginning of the study) received experimental stroke surgery using the middle cerebral artery occlusion (MCAo) model, under aseptic conditions. […] were anesthetized with 1-2% isoflurane in nitrous oxide/oxygen (69%/30%) using a face mask and checked for pain reflexes. Under deep anesthesia, animals underwent the MCAo surgery which entails insertion of a filament through the carotid artery to reach the junction of the MCA, thus blocking the blood flow from the common carotid artery, as well as from the circle of Willis.
The right common carotid artery was identified and isolated through a ventral midline cervical incision and suture size 4-0, made of sterile, non-absorbable suture (Ethicon, Inc.), with the diameter of the suture tip tapered to 24 to 26-gauge size using a rubber cement. About 15 to 17 mm of the filament was inserted from the junction of the external and internal carotid arteries to block the MCA. The right MCA was occluded for one hour. A heating pad and a rectal thermometer allowed maintenance of body temperature within normal limits (37±0.3° C.).
To further ensure similar degree of stroke insults, physiological parameters including PaO2, PaCO2, and plasma pH measurements were monitored. Based on laser Doppler readouts and behavioral tests after MCAs, a total of 48 animals were enrolled in this study.
B. Drug Treatment. In the treated subjects, 30 mg/kg of the phosphate of formula (2) wherein R^1 is isoamyl (NSI-189 H3PO4 (mol. wt. 464.50)), 99.8% pure based on the weight of the API (active pharmaceutical ingredient) base without the weight of phosphate salt was administered orally in 0.03N HCl in deionized water (n=24) or vehicle (n=24) was administered following MCAo 6 hours after stroke, and daily for the next 12 weeks.
About one hour after the EBST, the Bederson neurological exam was conducted using 3 tests: (1) forelimb retraction—measuring the ability of the rat to replace the forelimb after it was displaced laterally by 2 to 3 cm, graded from 0 (immediate replacement) to 3 (replacement after several seconds or no replacement); (2) beam walking ability, graded 0 for a rat that readily traversed a 2.4-cm-wide, 80-cm-long beam to 3 for a rat unable to stay on the beam for 10 seconds; and (3) bilateral forepaw grasp—the ability to hold onto a 2-mm-diameter steel rod, graded 0 for a rat with normal forepaw grasping behavior to 3 for a rat unable to grasp with the forepaws. The scores from all 3 tests, which were done over a period of about 15 minutes on each assessment day, were added to give a mean neurologic deficit score (maximum possible score, 9 points divided by 3 tests=3). […]

Ki67 = Ki67 immunohistochemistry of stroke brains
From the text: (§2) At scheduled intervals post-stroke (either 12 weeks or 24 weeks), rats of Example 1 were randomly euthanized (n=12 per treatment), perfused by transcardial perfusion with 4% paraformaldehyde. The brains were dissected, post-fixed for overnight in 4% paraformaldehyde, then subsequently immersed in 30% sucrose until immunohistochemical processing. Brain section preparations were designed to identify stroke-induced cerebral infarction and NSI-189-induced neurogenic effects.
Brains were embedded in gelatin blocks and sectioned on a freezing sliding microtome at 40-μm. The sections were washed in PBS 5×10 min to remove the antigen preservative solution. Endogenous peroxidase was blocked using 3% H2O2 for 15 minutes. The sections were then incubated in 1% Triton-X100 for 30 minutes, and then blocked with 5% Normal Horse Serum (NETS) for 1 hour. The sections were incubated with the primary antibody that binds Ki67 (1:2000, Cat. #: ab16667, Abcam, CA) or that binds MAP2 (1:2000, Cat. #: AB5622, Millipore, MA) overnight, rinsed 5×5 min in PBS prior to pre-incubation in 5% NHS for 1 hour, then incubated with the secondary antibody which corresponded to the respective host of the primary antibody (Donkey or Rabbit, 1:2000, Cat. #: 711-066-152, Jackson ImmunoResearch Laboratories, Inc, PA) for 90 minutes. After rinsing in PBS (5×5 min), the sections were incubated with peroxidase-conjugated streptavidin (1:5000, Cat. #: 016-030-084, Jackson ImmunoResearch Laboratories, Inc, PA) with 1% NHS. […]
The slides were imaged and reviewed under Nikon bright-field microscope (Nikon, Tokyo, Japan). The regions of interest (ROIs), including the cerebral cortex, the hippocampal subfields (CA1+CA2, CA3 and DG) were contoured rostro-caudally and the immunoreactivity of the MAP2 density was measured by Nikon NIS-Element software and Ki67+ cells counted rostro-caudally along the subgranular zone (SGZ) by Image-Pro Premier (v10.10), respectively. […] After completion, quantitative data were extracted and transferred for the statistical analysis (Prism, GraphPad®, La Jolla, Calif.). […]

[2] = system: middle cerebral artery occlusion (MCAo) stroke rats; assay: Elevated body swing test (EBST) after MCAo stroke
From the text: as §1
The right common carotid artery was identified and isolated through a ventral midline cervical incision and suture size 4-0, made of sterile, non-absorbable suture (Ethicon, Inc.), with the diameter of the suture tip tapered to 24 to 26-gauge size using a rubber cement. […]
To further ensure similar degree of stroke insults, physiological parameters including PaO2, PaCO2, and plasma pH measurements were monitored. Based on laser Doppler readouts and behavioral tests after MCAs, a total of 48 animals were enrolled in this study. […]
C. […] The direction of the swing, either left or right, was counted once the animals head moves sideways approximately 10 degrees from the midline position of the body. […]

MAP2 = MAP2 immunohistochemistry of stroke brains
From the text: as §2
Brains were embedded in gelatin blocks and sectioned on a freezing sliding microtome at 40-μm. The sections were washed in PBS 5×10 min to remove the antigen preservative solution. Endogenous peroxidase was blocked using 3% H2O2 for 15 minutes. The sections were then incubated in 1% Triton-X100 for 30 minutes, and then blocked with 5% Normal Horse Serum (NETS) for 1 hour. The sections were incubated with the primary antibody that binds Ki67 (1:2000, Cat. #: ab16667, Abcam, CA) or that binds MAP2 (1:2000, Cat. #: AB5622, Millipore, MA) overnight, rinsed 5×5 min in PBS prior to pre-incubation in 5% NHS for 1 hour, then incubated with the secondary antibody which corresponded to the respective host of the primary antibody (Donkey or Rabbit, 1:2000, Cat. #: 711-066-152, Jackson ImmunoResearch Laboratories, Inc, PA) for 90 minutes. After rinsing in PBS (5×5 min), the sections were incubated with peroxidase-conjugated streptavidin (1:5000, Cat. #: 016-030-084, Jackson ImmunoResearch Laboratories, Inc, PA) with 1% NHS. The sections were washed 5×5 min in PBS after the streptavidin, prior to developing with DAB (3,3′-Diaminobenzidine Tetrahydrochloride Hydrate, Cat #: 1001306853, Sigma-Aldrich, St. Louis, Mo.) and Nickel chloride. After DAB processing, the sections were rinsed, mounted, and air-dried overnight. The slides were dehydrated, and coverslipped with DPX Mounting Medium (Cat #: 13512, Electron Microscopy Sciences, Hatfield, Pa.).
The slides were imaged and reviewed under Nikon bright-field microscope (Nikon, Tokyo, Japan). The regions of interest (ROIs), including the cerebral cortex, the hippocampal subfields (CA1+CA2, CA3 and DG) were contoured rostro-caudally and the immunoreactivity of the MAP2 density was measured by Nikon NIS-Element software and Ki67+ cells counted rostro-caudally along the subgranular zone (SGZ) by Image-Pro Premier (v10.10), respectively. The slides were coded and blinded to the analysts during the course of the study. After completion, quantitative data were extracted and transferred for the statistical analysis (Prism, GraphPad®, La Jolla, Calif.). The data values between groups were compared using ANOVA with Tukey's post-hoc tests (p<0.05).

[3] = 12 weeks and 24 weeks post-stroke, vs vehicle, p's>0.05
[4] = vs vehicle-treated stroke animals

For `CC(C)CCNc1ncccc1C(=O)N1CCN(Cc2ccccc2)CC1.O=P(O)(O)O` [NSI-189 phosphate], the “restoring motor skills in the Bederson neurological exam” value ([1]; MCAo rats, 30 mg/kg orally 6 hours after stroke and daily for 12 weeks, vs vehicle) was “successful in restoring motor skills”, the “performance in the Bederson neurological exam (FIG. 2)” value ([1]; MCAo rats, 30 mg/kg orally daily for 12 weeks, after 6 months) was “performance approaching that of control even after 6 months” and the “control of motor skills compared to vehicle animals” value ([1]; day 3 post stroke, p<0.05) was “showed control of motor skills as early as day 3 post stroke”. The “improvement of motor skills over time compared to untreated animals” value ([1]; during 12 weeks of drug treatment and the next 12 weeks after withdrawal, p<0.05) was “continued to improve over time compared to untreated animals”, the “Ki67 level in hippocampal subgranular zone (SGZ)” value (Ki67; [3]) was “comparable levels of Ki67” and the “Ki67 level in subventricular zone (SVZ)” value (Ki67; [3]) was “comparable levels of Ki67”. The “Ki67 staining (cell proliferation) in the peri-infarct cortex” value (Ki67; [4]) was “increased Ki67”, the “restoring motor skills in the EBST” value ([2]; 30 mg/kg orally 6 hours after stroke and daily for 12 weeks, vs vehicle) was “successful in restoring motor skills” and the “performance in the EBST (FIG. 1)” value ([2]; 30 mg/kg orally daily for 12 weeks, controls showed no such recovery) was “recovered performance in the EBST almost to baseline levels”. For the same compound, the “MAP2 density in the cerebral cortex” value (MAP2; 12-week period, vs vehicle, p's<0.05) was “amplified MAP2 density”, the “MAP2 density in the hippocampus” value (MAP2; 12-week time point, vs vehicle, p's<0.05) was “increased MAP2 density” and the “cerebral infarction by MAP2 expression in the cortex and striatum” value (MAP2; [3]) was “did not significantly differ between groups”. For the same compound, the “MAP2 density in the cerebral cortex” value (MAP2; 24-week time point, vs vehicle) was “only detected at the 12-week period”, the “MAP2 density in the hippocampus” value (MAP2; 24-week time point, vs vehicle, p's<0.05) was “increased MAP2 density” and the “MAP2 staining (neurogenesis) in the peri-infarct cortex” value (MAP2; [4]) was “increased Ki67 and MAP2 staining”.
